Reference: patent US20210008095A1, “METHODS FOR TREATING MUSCULAR DYSTROPHY” (Sarepta Therapeutics, Inc., priority 2015, published 2021)
Where “and” joins values, the source holds several entries; their conditions need not be identical. Identical values can stand only once. Entries after “also recorded” stand apart in the source; their conditions may differ. Marks after values point to notes of the source that are not given here.

Legend:
[1] = test system: patients with Duchenne muscular dystrophy (DMD) amenable to exon 51 skipping; assay: North Star Ambulatory Assessment (NSAA); format: in vivo, human; design: key to Year 3 NSAA Score: sum of activity scores, each 2 = normal to 0 = unable independently
From the text: Due to decreases in muscle function in patients with DMD, ambulation is often lost during disease progression. Ambulation can be measured through various methods, including the North Star Ambulatory Assessment (NSAA). The NSAA was developed by the Physiotherapy Assessment and Evaluation Group of the North Start Clinical Network to assess ambulant boys with DMD, and provides a list of activities that are scored from 2-0, with 2 being normal and 0 being “unable to achieve independently” (2006-2011 MDC/North Star Clinical Network). These activities range from standing for a minimum of 3 seconds to climbing up and down a box to running. In certain embodiments, treatment with eteplirsen may maintain, stabilize, increase, or improve ambulation, for example, as determined by the NSAA.
(§1) The 6MWT was administered using the protocol established for patients with DMD by McDonald, et al. (Muscle Nerve, 2010; 42:966-74; Muscle Nerve, 2010; 41:500-10 herein incorporated by reference), except there was no use of the StepWatch actimetry device. Exploratory functional outcomes included the North Star Ambulatory Assessment, quantitative muscle testing, the 9-Hole Peg Test, pulmonary function testing (PFT), timed function tests, and assessment of quality of life.

[2] = test system: patients with Duchenne muscular dystrophy (DMD) amenable to exon 51 skipping; assay: Pulmonary function testing (MIP, MEP, FVC); format: in vivo, human; settings: baseline through Week 192
From the text: In some embodiments, treatment with eteplirsen slows or reduces the progressive respiratory muscle dysfunction and/or failure in patients with DMD that would be expected without treatment. In some embodiments, treatment with eteplirsen stabilizes respiratory muscle function in patients with DMD. In one embodiment, treatment with eteplirsen may reduce or eliminate the need for ventilation assistance that would be expected without treatment. In one embodiment, measurements of respiratory function for tracking the course of the disease, as well as the evaluation of potential therapeutic interventions include Maximum inspiratory pressure (MIP), maximum expiratory pressure (MEP) and forced vital capacity (FVC). MIP and MEP measure the level of pressure a person can generate during inhalation and exhalation, respectively, and are sensitive measures of respiratory muscle strength. […]
as §1

[3] = test system: patients with Duchenne muscular dystrophy (DMD) amenable to exon 51 skipping; assay: 6 Minute Walk Test (6MWT), Study 201/202; format: in vivo, human; design: key to Year 4 6MWT: 6MWT distance walked, in meters; settings: for difference in mean change from baseline in 6MWT distance vs matched external control cohort: 12 treated vs 13 controls; for Year 4 6MWT/6MWD / Year 3 6MWT/6MWD: individual subjects; for Year 4 6MWT Difference in Mean Change: vs external matched control
Procedure: For the eteplirsen treated cohort, eligible patients were between 7 and 13 years of age (inclusive), with out-of-frame deletions of the DMD gene that could be corrected by skipping exon 51. Patients were confirmed to have stable cardiac and pulmonary function and a stable dose of glucocorticoids for at least 24 weeks prior to enrollment. Only patients who could walk between 200 and 400 meters […] on the 6-Minute Walk Test (6MWT) at baseline were enrolled.
This 4 year trial was conducted in two phases: (1) treatment was double-blind through week 24 and (2) open-label thereafter. The primary endpoint was change in ambulation as measured by the 6-Minute Walk Test (6MWT).
Study 201 (Study no. 4658-us-201; ClinicalTrials.gov Identifier: NCT01396239) was a single-site, randomized, double-blind, placebo-controlled, multiple-dose efficacy, safety and tolerability trial of eteplirsen. Twelve patients with DMD were randomized to one of three groups: eteplirsen 30 mg/kg/week (Cohort 1); eteplirsen 50 mg/kg/week (Cohort 2); or placebo/delayed eteplirsen (Cohort 3). All patients received weekly intravenous eteplirsen or placebo/delayed eteplirsen dosing. Placebo-treated patients crossed over to weekly eteplirsen 30 (n=2) or 50 mg/kg (n=2) at week 25. Efficacy and safety were assessed at scheduled visits, and an independent Data Safety Monitoring Board ensured the welfare of all patients. All patients had bicep biopsies at baseline. Follow-up biopsies were performed in the opposite arm (biceps) at week 12 for the 50 mg/kg group and two placebo-treated patients and at week 24 for the 30 mg/kg group and two placebo-treated patients.
(§2) Patients continued weekly dosing with 30 or 50 mg/kg eteplirsen under Study 202 (Study no. 4658-us-202; ClinicalTrials.gov Identifier: NCT01540409) a long-term, open-label extension study. All efficacy assessments continued to be performed during Study 202, including a third biopsy (in the left deltoid muscle) in all patients at week 48. A voluntary fourth biopsy ( 11/12 patients) was performed at week 180. Monitoring of adverse events continued throughout the study.
To compare the results of the eteplirsen cohort to a matched external control cohort, the Italian Telethon (n=97) and Leuven Neuromuscular Research Center (NMRC) (n=89) registries were used to compile control data. These registries were chosen because the following data was available: longitudinal 6MWT data in exon 51 amenable patients, longitudinal 6MWT data up to 36 months, and genetic mutation data. There was also an equivalent standard of care, including steroids, in these registries. Patient data was selected based on the following factors: baseline 6MTW and steroid treatment, age of 7 years or older, and amenable to exon 51 skipping (FIG. 2)
as §1

[4] = test system: exon 51 of the human dystrophin gene; assay: Exon 51 skipping in patient muscle biopsy at week 180; format: in vivo; settings: 180 weeks
Procedure: as §2

## RNA, [P-deoxy-P-(dimethylamino)](2′,3′-dideoxy-2′,3′-imino-2′,3′-seco)(2′a→5′)(C-m5U-C-C-A-A-C-A-m5U-C-A-A-G-G-A-A-G-A-m5U-G-G-C-A-m5U-m5U-m5U-C-m5U-A-G), 5′-[P-[4-[[2-[2-(2-hydroxyethoxy)ethoxy]ethoxy]carbonyl]-1-piperazinyl]-N,N-dimethylphosphonamidate] (antisense CTCCAACATCAAGGAAGATGGCATTTCTAG; all phosphorodiamidate morpholino (PMO); 5' piperazinyl triethylene glycol carbamate tail on phosphonamidate, further chemistry not fully specified) [eteplirsen]
[1]; at 2 and 3 years following treatment, vs external control
  rate of decline in NSAA score: slower rate of decline in NSAA score
[1]; at 3 years
  difference in NSAA score compared to the external control group cohort: 2.6 points
[1]; individual ambulatory subjects (n=10)
  Year 3 NSAA Score: 13 (3×) and 14 and 24 and 25 (2×) and 7 and 8 and 11
[2]
  pulmonary function (MIP, MEP, FVC): continued stabilization of pulmonary function; also recorded: either maintained or had only a slight decline in all of MIP, MEP, and FVC
[3]; 4 years
  difference in mean change from baseline in 6MWT distance vs matched external control cohort: 162 m
[3]; 36 months / 3 years
  difference in mean change from baseline in 6MWT distance vs matched external control cohort: 151 m
[3]; 42 months, all 12 treated patients, external control −74% at month 36
  6MWT distance percent change from baseline: −42%
[3]; 48 months, placebo-delayed patients excluded (n=8)
  6MWT distance percent change from baseline: −43%
[3]; 216 weeks, dose group 30 mg/kg
  Year 4 6MWT/6MWD: 349 meters and 332 meters and 0 meters (2×)
[3]; 216 weeks, dose group 50 mg/kg
  Year 4 6MWT/6MWD: 192 meters and 221 meters and 237 meters and 400 meters
[3]; 216 weeks, dose group Placebo to 30 mg/kg
  Year 4 6MWT/6MWD: 197 meters and 55 meters
[3]; 216 weeks, dose group Placebo to 50 mg/kg
  Year 4 6MWT/6MWD: 230 meters and 143 meters
[3]; Table 5, individual ambulatory subjects (n=10)
  Year 4 6MWT: 192 and 197 and 230 and 332 and 221 and 55† and 400 and 349 and 237 and 143
[3]; Table 6, individual ambulatory subjects (n=10)
  Year 4 6MWT Distance (m): 55† m and 332 m and 230 m and 221 m and 400 m and 349 m and 192 m and 143 m and 237 m and 197 m
[3]; dose group 30 mg/kg
  Year 3 6MWT/6MWD: 378 meters and 359 meters and 0 meters (2×)
[3]; dose group 50 mg/kg
  Year 3 6MWT/6MWD: 324 meters and 355 meters and 298 meters and 483 meters
[3]; dose group Placebo to 30 mg/kg
  Year 3 6MWT/6MWD: 312 meters and 100 meters
[3]; dose group Placebo to 50 mg/kg
  Year 3 6MWT/6MWD: 301 meters and 247 meters
[3]; over the duration of the study, FIG. 6
  walking distance over the study: maintained a stable walking distance
[3]; several subjects including subject number 4, 216 weeks
  walking ability retained relative to baseline: greater than 50%
[3]; subject number 15, 216 weeks
  change in 6MWT relative to baseline: lost one meter
[3]; subjects 003 and 005, respectively
  6MWT distance at year 4 in patients below the NSAA threshold at year 3: 143 meters and 192 meters
[3]; ANCOVA, Covariate: Baseline 6MWT
  Year 4 6MWT Difference in Mean Change: 150.3, p = 0.002
[3]; ANCOVA, Covariates: Baseline 6MWT, Age
  Year 4 6MWT Difference in Mean Change: 156.1, p = 0.002
[3]; ANCOVA, Rank transformed data
  Year 4 6MWT Difference in Mean Change: 8.7, p = 0.001
[3]; MMRM, Covariate: Baseline 6MWT
  Year 4 6MWT Difference in Mean Change: 146.5, p = 0.003
[3]; MMRM, Covariates: Baseline 6MWT, Age
  Year 4 6MWT Difference in Mean Change: 143.1, p = 0.004
[3]; MMRM, Rank transformed data
  Year 4 6MWT Difference in Mean Change: 8.4, p = 0.004
[3]; weeks 168 to 192 (42 to 48 months)
  patient ambulation between weeks 168 and 192: patient ambulation stabilized; also recorded: stabilized patient ambulation
[4]
  exon 51 skipping: all patients had measurable exon 51 skipping
